The source made the active and inactive calls. The rule behind the calls is not given here.
Legend:
Staphylococcus aureus [1] = assay: Antibacterial activity against Staphylococcus aureus ATCC29213 assessed as reduction in microbial growth incubated for 22 to 24 hrs by CLSI based broth microdilution method; format: functional; details: time 22-24 hrs
Staphylococcus aureus [2] = assay: Antibacterial activity against methicillin-resistant Staphylococcus aureus NCTC10442 assessed as reduction in microbial growth incubated for 22 to 24 hrs by CLSI based broth microdilution method; format: functional; details: time 22-24 hrs
[3] = Hemolytic activity against rabbit RBC incubated for 1 hr by multimode plate reader; format: toxicity, cell-based, Oryctolagus cuniculus, Erythrocyte; details: rabbit red blood cells (erythrocytes)
Klebsiella pneumoniae [4] = assay: Antibacterial activity against Klebsiella pneumoniae ATCC10031 assessed as reduction in microbial growth incubated for 22 to 24 hrs by CLSI based broth microdilution method; format: functional; details: time 22-24 hrs
Acinetobacter baumannii [5] = assay: Antibacterial activity against Acinetobacter baumannii ATCC17978 assessed as reduction in microbial growth incubated for 22 to 24 hrs by CLSI based broth microdilution method; format: functional; details: time 22-24 hrs
Staphylococcus aureus [6] = assay: Bactericidal activity against methicillin-resistant Staphylococcus aureus NCTC10442 assessed as cell killing at 4 to 8 times of MIC measured up to 24 hrs by time kill assay; format: functional, organism-based
Staphylococcus aureus [7] = assay: Bactericidal activity against Staphylococcus aureus ATCC29213 assessed as log reduction in bacterial load at 8 times of MIC measured with in 0.5 hrs by time kill assay; format: functional
[8] = Cytotoxicity against HEK293 cells assessed reduction in cell viability incubated for 24 hrs by CCK-8 assay; format: toxicity, cell-based; details: human
[9] = Cytotoxicity against HEK293 cells assessed as viable cells at 100 ug/ml incubated for 24 hrs by CCK-8 assay relative to control; format: toxicity, cell-based; details: human, at 100 µg/mL, read-out: Activity
Staphylococcus aureus [10] = assay: Induction of membrane permeabilization in methicillin-resistant Staphylococcus aureus NCTC10442 assessed as increase in fluorescence intensity measured upto 60 mins by SYTOX green assay; format: functional, organism-based
Escherichia coli = assay: Induction of outer membrane permeabilization in Escherichia coli ATCC25922 assessed as increase in fluorescence intensity measured upto 1 hr by NPN uptake assay; format: functional, organism-based
Staphylococcus aureus [11] = assay: Antibacterial activity against Staphylococcus aureus ATCC29213 assessed as reduction in bacterial growth incubated for 22 to 24 hrs in presence of KCl by CLSI based broth microdilution method; format: functional; details: time 22-24 hrs
Staphylococcus aureus [12] = assay: Antibacterial activity against Staphylococcus aureus ATCC29213 assessed as reduction in bacterial growth incubated for 22 to 24 hrs in presence of MgCl2 by CLSI based broth microdilution method; format: functional; details: time 22-24 hrs
Staphylococcus aureus [13] = assay: Antibacterial activity against methicillin-resistant Staphylococcus aureus N315 assessed as reduction in bacterial growth incubated for 22 to 24 hrs in presence of NaCl by CLSI based broth microdilution method; format: functional; details: time 22-24 hrs
Staphylococcus aureus [14] = assay: Antibacterial activity against methicillin-resistant Staphylococcus aureus N315 assessed as reduction in bacterial growth incubated for 22 to 24 hrs in presence of KCl by CLSI based broth microdilution method; format: functional; details: time 22-24 hrs
Staphylococcus aureus [15] = assay: Antibacterial activity against methicillin-resistant Staphylococcus aureus N315 assessed as reduction in bacterial growth incubated for 22 to 24 hrs in presence of CaCl2 by CLSI based broth microdilution method; format: functional; details: time 22-24 hrs
Staphylococcus aureus [16] = assay: Antibacterial activity against methicillin-resistant Staphylococcus aureus N315 assessed as reduction in bacterial growth incubated for 22 to 24 hrs in presence of ZnSO4.7H2O by CLSI based broth microdilution method; format: functional; details: time 22-24 hrs
Staphylococcus aureus [17] = assay: Antibacterial activity against methicillin-resistant Staphylococcus aureus N315 assessed as reduction in bacterial growth incubated for 22 to 24 hrs in presence of FeCl3 by CLSI based broth microdilution method; format: functional; details: time 22-24 hrs
Staphylococcus aureus [18] = assay: Antibacterial activity against methicillin-resistant Staphylococcus aureus NCTC10442 assessed as reduction in bacterial growth incubated for 22 to 24 hrs in presence of KCl by CLSI based broth microdilution method; format: functional; details: time 22-24 hrs
Staphylococcus aureus [19] = assay: Antibacterial activity against methicillin-resistant Staphylococcus aureus NCTC10442 assessed as reduction in bacterial growth incubated for 22 to 24 hrs in presence of MgCl2 by CLSI based broth microdilution method; format: functional; details: time 22-24 hrs
Staphylococcus aureus [20] = assay: Antibacterial activity against methicillin-resistant Staphylococcus aureus NCTC10442 assessed as reduction in bacterial growth incubated for 22 to 24 hrs in presence of FeCl2 by CLSI based broth microdilution method; format: functional; details: time 22-24 hrs
Staphylococcus aureus [21] = assay: Synergistic […] activity against Staphylococcus aureus ATCC29213 assessed as fractional inhibitory concentration index incubated for 22 to 24 hrs in presence of fusidic acid by CLSI based broth microdilution method; format: functional; details: time 22-24 hrs
Staphylococcus aureus [22] = assay: Synergistic […] activity against methicillin-resistant Staphylococcus aureus NCTC10442 assessed as fractional inhibitory concentration index incubated for 22 to 24 hrs in presence of linezolid by CLSI based broth microdilution method; format: functional; details: time 22-24 hrs
Staphylococcus aureus [23] = assay: Synergistic […] activity against Staphylococcus aureus ATCC29213 assessed as fractional inhibitory concentration index incubated for 22 to 24 hrs in presence of vancomycin by CLSI based broth microdilution method; format: functional; details: time 22-24 hrs
Staphylococcus aureus [24] = assay: Synergistic […] activity against methicillin-resistant Staphylococcus aureus NCTC10442 assessed as fractional inhibitory concentration index incubated for 22 to 24 hrs in presence of mupirocin by CLSI based broth microdilution method; format: functional; details: time 22-24 hrs
Staphylococcus aureus [25] = assay: Synergistic […] activity against methicillin-resistant Staphylococcus aureus NCTC10442 assessed as fractional inhibitory concentration index incubated for 22 to 24 hrs in presence of vancomycin by CLSI based broth microdilution method; format: functional; details: time 22-24 hrs
Klebsiella pneumoniae [26] = assay: Synergistic […] activity against Klebsiella pneumoniae ATCC10031 assessed as fractional inhibitory concentration index incubated for 22 to 24 hrs in presence of amikacin by CLSI based broth microdilution method; format: functional; details: time 22-24 hrs
Acinetobacter baumannii [27] = assay: Synergistic […] activity against Acinetobacter baumannii ATCC17978 assessed as fractional inhibitory concentration index incubated for 22 to 24 hrs in presence of tobramycin by CLSI based broth microdilution method; format: functional; details: time 22-24 hrs
Acinetobacter baumannii [28] = assay: Synergistic […] activity against Acinetobacter baumannii ATCC17978 assessed as fractional inhibitory concentration index incubated for 22 to 24 hrs in presence of gentamicin by CLSI based broth microdilution method; format: functional; details: time 22-24 hrs
Acinetobacter baumannii [29] = assay: Synergistic […] activity against Acinetobacter baumannii ATCC17978 assessed as fractional inhibitory concentration index incubated for 22 to 24 hrs in presence of amikacin by CLSI based broth microdilution method; format: functional; details: time 22-24 hrs
Staphylococcus aureus [30] = assay: Antibacterial activity against Staphylococcus aureus ATCC29213 infected in C57BL6 mouse corneal infection model assessed as log reduction in CFU at 0.5 % administered topically on corneas for four times in 3 days by MHA plate counting method; format: functional; details: route top, time 3 day
[31] = Cytotoxicity against mouse NCTC clone 929 cells assessed as viable cells at 6.25 ug/ml incubated for 24 hrs by CCK-8 assay relative to control; format: toxicity, cell-based; details: NCTC clone 929 (L929) cells, at 6.25 µg/mL, read-out: Activity
[32] = Cytotoxicity against mouse NCTC clone 929 cells assessed as viable cells at 50 ug/ml incubated for 24 hrs by CCK-8 assay relative to control; format: toxicity, cell-based; details: NCTC clone 929 (L929) cells, at 50 µg/mL, read-out: Activity
[33] = Cytotoxicity against HEK293 cells assessed as viable cells at 6.25 ug/ml incubated for 24 hrs by CCK-8 assay relative to control; format: toxicity, cell-based; details: human, at 6.25 µg/mL, read-out: Activity

## COC(=O)[C@H](CCCNC(=N)N)NC(=O)[C@H](CCCNC(=N)N)NC(=O)COc1ccc(S(=O)(=O)c2ccc(OC/C=C(/C)CCC=C(C)C)cc2)cc1
Staphylococcus aureus [1]
  MIC: 1.56 µg/mL
Staphylococcus aureus [2]
  MIC: 0.78 µg/mL
[3]
  HC50 at 1 h: > 200 µg/mL
Klebsiella pneumoniae [4]
  MIC: 6.25 µg/mL
Acinetobacter baumannii [5]
  MIC: 12.5 µg/mL
Staphylococcus aureus [6]
  Activity: Active
Staphylococcus aureus [7]
  log(activity): 3
[8]
  CC50 at 24 h: > 100 µg/mL
[9]
  viability at 24 h, 100 ug/ml: 79.4%
Staphylococcus aureus [10]
  Activity: Dose-Dependent Effect
Escherichia coli
  Activity: Dose-Dependent Effect
Staphylococcus aureus [11]
  MIC: 1.56 µg/mL
Staphylococcus aureus [12]
  MIC: 1.56 µg/mL
Staphylococcus aureus [13]
  MIC: 1.56 µg/mL
Staphylococcus aureus [14]
  MIC: 1.56 µg/mL
Staphylococcus aureus [15]
  MIC: 3.12 µg/mL
Staphylococcus aureus [16]
  MIC: 1.56 µg/mL
Staphylococcus aureus [17]
  MIC: 1.56 µg/mL
Staphylococcus aureus [18]
  MIC: 1.56 µg/mL
Staphylococcus aureus [19]
  MIC: 1.56 µg/mL
Staphylococcus aureus [20]
  MIC: 1.56 µg/mL
Staphylococcus aureus [21]
  fractional inhibitory concentration index (FICI): 0.28
Staphylococcus aureus [22]
  fractional inhibitory concentration index (FICI): 0.27
Staphylococcus aureus [23]
  fractional inhibitory concentration index (FICI): 0.5
Staphylococcus aureus [24]
  fractional inhibitory concentration index (FICI): 1
Staphylococcus aureus [25]
  fractional inhibitory concentration index (FICI): 0.5
Klebsiella pneumoniae [26]
  fractional inhibitory concentration index (FICI): 0.31
Acinetobacter baumannii [27]
  fractional inhibitory concentration index (FICI): 0.56
Acinetobacter baumannii [28]
  fractional inhibitory concentration index (FICI): 0.28
Acinetobacter baumannii [29]
  fractional inhibitory concentration index (FICI): 0.28
Staphylococcus aureus [30]
  log(activity): 6.9
[31]
  viability at 24 h, 6.25 ug/ml: 91.5%
[32]
  viability at 24 h, 50 ug/ml: 84.7%
[33]
  viability at 24 h, 6.25 ug/ml: 96.1%

— ChEMBL document CHEMBL5584236, “Development of novel bisphenol derivatives with a membrane-targeting mechanism as potent gram-positive antibacterial agents” (Eur J Med Chem, 2024)
